Data on ten molecules can be found in patent publication US7361675B2, “1,2,4-thiadiazole compounds and use thereof” (Sumitomo Chemical Company Limited, priority 2002, dated 2008).

Series [1] relates to silverleaf whitefly (Bemisia argentifolii). Nature of the series: Test Example 3: silverleaf whitefly on cabbage (foliar scattering). The series is classed as in vivo. The following applies: 168 h, 20 ml/cup on cabbage 8 days after egg laying, seven days after scattering, read-out: insecticidal rate. As for the experimental part:
A preparation prepared from each of the compounds (1), (2), (5), (6), (8), (9), (16), (77) and (78) of the present invention and the comparative compound (A) according to Formulation Example 5 was diluted with water so that the concentration of the compound of the present invention became 500 ppm to obtain a test scattering solution.
On the other hand, soil was filled in polyethylene cups, cabbage was planted in each cup, and grown until its first foliage leaves developed, and leaves other than a first foliage leaves were removed. About 200 imagoes of silverleaf whitefly (Bemisia argentifolii) were released on this cabbage for about 24 hours, and had them lay eggs on the cabbage first foliage leaf.
The thus obtained cabbage on which about 80 to 100 eggs of silverleaf whitefly (Bemisia argentifolii) were laid was allowed to stand in a greenhouse for 8 days, and the aforementioned test scattering solution was scattered at a ratio of 20 ml/cup. Seven days after scattering, the number of alive insects was examined, and an insecticidal rate was calculated.

In series [2] the test system is western flower thrips (Frankliniella occidentalis). Nature of the series: Test Example 2: western flower thrips damage on treated cucumber leaf. The series is classed as in vivo. Particulars: 500 ppm, 20 ml/cup on cucumber, cut first foliage leaf, 30 larvae, after seven days. As for the experimental part:
A preparation prepared from each of the compound (1) of the present invention and a comparative compound (A) according to Formulation Example 5 was diluted with water so that the concentration of the compound of the present invention became 500 ppm to obtain a test scattering solution. On the other hand, soil was filled into polyethylene cups, cucumber was planted in each cup, and grown until its first foliage leaves developed. The aforementioned test scattering solution was scattered on the cucumber at a ratio of 20 ml/cup, and the scattered solution on the surface of the leaf was dried. The first foliage leaf was cut off, placed on a filter (diameter 70 mm) impregnated with water in a polyethylene cup (diameter 110 mm), 30 larvae of western flower thrips (Frankliniella occidentalis) were released thereon, and the polyethylene cup was closed with a lid. After seven days, a damage degree of the cucumber leaf by western flower thrips (Frankliniella occidentalis) was examined.

Usually melting point stands for the temperature of the solid-liquid transition.

For `CC#CCOc1nsc(-c2cccc(F)c2F)n1` [compound (16), 5-(2,3-difluorophenyl)-3-(2-butynyloxy)-1,2,4-thiadiazole], the pest or weed control at 500 ppm in series [1] was at least 90%. Same read-out and setting: in the case of `CCC#CCOc1nsc(-c2cccc(Cl)c2)n1` [compound (78), 5-(3-chlorophenyl)-3-(2-pentynyloxy)-1,2,4-thiadiazole] it was at least 90%. `CC#CCOc1nsc(-c2cccc(F)c2)n1` [compound (6), 5-(3-fluorophenyl)-3-(2-butynyloxy)-1,2,4-thiadiazole] gave a melting point of 68.7 °C. Moreover, the pest or weed control at 500 ppm in series [1] was at least 90%. `C#CCOc1nsc(-c2ccccc2)n1` [compound (1), 5-phenyl-3-propargyloxy-1,2,4-thiadiazole] had a melting point of 66.9 °C. In series [1], the pest or weed control at 500 ppm was at least 90%. Moreover, the “damage area rate by western flower thrips in the treated leaf” value in series [2] was at most 5%. Take `C#CCOc1nnc(-c2ccccc2)s1` [comparative compound (A), reference compound]: the pest or weed control at 500 ppm in series [1] was at most 30%. Moreover, the “damage area rate by western flower thrips in the treated leaf” value in series [2] is on record as at least 20%. Regarding `CC#CCOc1nsc(-c2ccccc2F)n1` [compound (5), 5-(2-fluorophenyl)-3-(2-butynyloxy)-1,2,4-thiadiazole], the pest or weed control at 500 ppm in series [1] was at least 90%. Consider `CC#CCOc1nsc(-c2ccccc2Cl)n1` [compound (8), 5-(2-chlorophenyl)-3-(2-butynyloxy)-1,2,4-thiadiazole], for which the pest or weed control at 500 ppm in series [1] is at least 90%. Take `CCC#CCOc1nsc(-c2ccccc2Cl)n1` [compound (77), 5-(2-chlorophenyl)-3-(2-pentynyloxy)-1,2,4-thiadiazole]: the pest or weed control at 500 ppm in series [1] is at least 90%. For the molecule `CC#CCOc1nsc(-c2ccccc2)n1` [compound (2), 5-phenyl-3-(2-butynyloxy)-1,2,4-thiadiazole], the melting point amounted to 70.3 °C. Also, in series [1], the pest or weed control at 500 ppm was at least 90%. Regarding `CC#CCOc1nsc(-c2cccc(Cl)c2)n1` [compound (9), 5-(3-chlorophenyl)-3-(2-butynyloxy)-1,2,4-thiadiazole], in series [1], the pest or weed control at 500 ppm was at least 90%.
